Experimental data as given in patent publication US20150157597A1, “NEURODEGENERATIVE DISEASE TREATMENT USING JAK/STAT INHIBITION” (Uinversity of South Florida, priority 2007, published 2015).
Entries after “also recorded” stand apart in the source; their conditions may differ.

Experiments:
[1] = test system: primary cultured neuronal cells; test: LDH release assay, primary cultured neurons challenged with gp120/Tat and IFN-γ; format: cell-based, mouse; conditions: for Neuronal injury, LDH release: JAK inhibitor 50 nM, IFN-γ 100 U/ml with gp120 or Tat 250 ng/ml; for Neuronal injury, LDH release / LDH release: 12 h
Method: (§1) Primary cultures of mouse cortical neurons were prepared as described previously (Chin et al., 1997). Briefly, neuronal cells were isolated from newborn C57BL16 mice and seeded in 6-well tissue-culture plates at 2×10^5 cells/well for 48 h. […] In addition, to test whether EGCG could inhibit JAK/STAT1 signaling and neuronal damage induced by gp120 or/and Tat in the presence of IFN-γ, EGCG was also employed as the co-treatment. Cell culture supernatants were used for LDH assay while cell lysates were used for Western blot analysis of Bcl-xL and Bax proteins.
(§2) Normal C57BL/6 primary cultured neuronal cells as well as STAT1-deficient primary neuronal cells were isolated and cultured as described previously (Chin et al., 1997). Normal cells were co-treated with either gp120 or Tat (250 ng/ml) with or without IFN-γ (100 U/ml) and/or JAK inhibitor (50 nM). STAT1-deficient cells were treated with HIV-1 gp120 or HIV-1 Tat (250 ng/ml) in the presence or absence of IFN-γ (100 U/ml) for 12 h. At the end of the treatment period, neuronal cells were washed in ice-cold PBS three times and lysed in ice-cold lysis buffer. After incubation for 30 mm on ice, samples were centrifuged at high speed for 15 mm, and supernatants were collected. Total protein content was estimated by using the Bio-Rad protein assay. For phosphorylation of JAK1, membranes were first hybridized with phosphospecific Tyr1022/1023 JAK1 antibody (Cell Signaling Technology, Beverly, Mass.) and then stripped and finally analyzed by total JAK1. For STAT1 phosphorylation, membranes were probed with a phospho-Ser727 STAT1 antibody (Cell Signaling Technology), stripped with stripping solution, and then re-probed with an antibody that recognizes total STAT1 (Cell Signaling Technology). Alternatively, membranes with identical samples were probed either with phospho-JAK or STAT1 or with an antibody that recognizes total JAK or STAT1. Immunoblotting was performed with a primary antibody, followed by an anti-rabbit HRP-conjugated IgG secondary antibody as a tracer. After being washed in TBS, the membranes were incubated in the luminol reagent and exposed to film.
LOU release assay (Promega, Madison, Wis.) was performed as previously described (Tan et al., 2002). Briefly, after treatment at a variety of conditions, cell cultured media were collected for LOU release assay. Total LDH release was represent maximal lysis of target cells with 5% Triton X-100. Data are presented as mean±SD of LOU release.

[2] = test system: primary cultured neuronal cells; test: Western blot band density ratio of Bcl-xL to Bax in primary neuron lysates; format: cell-based, mouse; conditions: 12 h; for Neuronal injury, Western blot band density ratio of Bcl-xL to Bax: JAK inhibitor 50 nM, IFN-γ 100 U/ml with gp120 or Tat 250 ng/ml
Method: as §1, §2
Western blot was performed as described previously (Tan et al., 2002). Briefly, for the in vivo studies left hemispheres of mouse brains were lysed in ice-cold lysis buffer and an aliquot corresponding to 50 μg of total protein was electrophoretically separated using 16.5% Tris-tricine gels. Electrophoresed proteins were then transferred to PVDF membranes (BioRad), washed in dH2O, and blocked for 1 h at ambient temperature in Tris-buffered saline containing 5% (w/v) nonfat dry milk. […] Densitometric analysis was done using the Fluor-S MultiImager™ with Quantity One™ software (Bio-Rad). […]

C57BL/6 mice [3] = test: In vivo neurotoxicity, NeuN staining of cortical brain sections after i.c.v. injection; design: species or system mouse; conditions: 24 h
Text: (§3) Animals were anesthetized using isoflurane (chamber induction at 4-5% isoflurane, intubation and maintenance at 1-2%). After reflexes were checked to ensure that mice were unconscious, they were positioned on a stereotaxic frame (Stoelting Lab Standard) with ear-bars positioned and jaws fixed to a biting plate. The axis coordinates were taken from a mouse brain atlas, and a 5-mm sterile plastic guide cannula (21 GA; Plastic One, Inc., Roanoke, Va.) was implanted into the left lateral ventricle delimited from the stereotaxic coordinates (coordinates relative to bregma: −0.6 mm anterior/posterior, +1.2 mm medial/lateral, and −3.0 mm dorsal/ventral) using the stereotaxic device (Stoelting Lab Standard) and an attached probe (cannula) holder. IFN-γ (200 U/mouse) with HIV-1 protein gp120 (500 ng/mouse) or Tat (500 ng/mouse) or PBS (10 μl) was administered at the rate of 1 μl/min using a Hamilton syringe (modified with a solder stop to prevent over insertion of the needle) through the implanted cannula. […]
At sacrifice, mice were anesthetized with isofluorane and transcardially perfused with ice-cold physiological saline containing heparin (10 U/ml). […] After another cycle of washing, floating sections were mounted onto slides, dehydrated and coverslipped with Vectashield fluorescence mounting media (Vector Labs., Burlingame, Calif.). […]

C57BL/6 mice [4] = test: In vivo neurotoxicity, Bcl-xL/Bax Western blot of brain homogenates; design: species or system mouse; conditions: 24 h
Text: as §3, with “cannula. Correctness of the injection was confirmed by trypan blue dye administration and histological examination. The wounds were closed with 1-2 staples and mice were all observed until anesthesia had cleared.” for “cannula.”
(§4) Western blot was performed as described previously (Tan et al., 2002). […] Densitometric analysis was done using the Fluor-S MultiImager™ with Quantity One™ software (Bio-Rad). […]

JAK1 = JAK1 phosphorylation by Western blot in primary cultured neurons; format: cell-based, mouse
Method: as §2, with “Alternatively, membranes with identical samples were probed either with phospho-JAK or STAT1 or with an antibody that recognizes total JAK or STAT1. Immunoblotting was performed with a primary antibody, followed by an anti-rabbit HRP-conjugated IgG secondary antibody as a tracer. After being washed in TBS, the membranes were incubated in the luminol reagent and exposed to film.” left out
as §4

STAT1 = STAT1 phosphorylation by Western blot in primary cultured neurons; format: cell-based, mouse
Method: as §2, with “Alternatively, membranes with identical samples were probed either with phospho-JAK or STAT1 or with an antibody that recognizes total JAK or STAT1. Immunoblotting was performed with a primary antibody, followed by an anti-rabbit HRP-conjugated IgG secondary antibody as a tracer. After being washed in TBS, the membranes were incubated in the luminol reagent and exposed to film.” left out
as §4

[5] = EGCG 20 μM, gp120 or Tat 500 ng/ml with IFN-γ 100 U/ml
[6] = EGCG 50 mg/kg i.p., i.c.v. IFN-γ/gp120 or IFN-γ/gp120/Tat
[7] = EGCG at a range of doses co-incubated with IFN-γ 100 U/ml, 60 min
[8] = IFN-γ 100 U/ml added to gp120 or Tat 250 ng/ml
[9] = IFN-γ 100 U/ml, time-dependently

**Q.** For `CC(C)(C)c1nc2c3ccc(F)cc3c3c(=O)[nH]ccc3c2[nH]1` [JAK inhibitor, 2-(1,1-Dimethylethyl)-9-fluoro-3,6-dihydro-7H-benz[h] -imidaz[4,5-f] isoquinolin-7-one], which “Cell death and apoptosis indicators (LDH, Bcl-xL/Bax) versus control treatment group” value ([1]; JAK1 inhibitor, combination of gp120 and Tat included in the treatment) is on record?
**A.** Its value is “did not return to baseline levels”.

**Q.** And the “Neuronal injury, LDH release” value [1]?
**A.** The value was “significantly inhibited”.

**Q.** And the “Neuronal injury, LDH release” value ([1]; listed as JAK1 inhibitor)?
**A.** Its value is “greatly reduced”.

**Q.** What about the “Neuronal injury, Western blot band density ratio of Bcl-xL to Bax” value [2] of the same compound?
**A.** The value was “significantly inhibited”.

**Q.** And the “Neuronal injury, Western blot band density ratio of Bcl-xL to Bax” value ([2]; listed as JAK1 inhibitor)?
**A.** The value was “greatly reduced”.

**Q.** How did the LDH release [1, 5] turn out when (-)-epigallocatechin-3-gallate [EGCG] was run?
**A.** The LDH release was “decreased”.

**Q.** And the “Neuronal damage in cortical regions (NeuN)” value (C57BL/6 mice [3]; [6])?
**A.** Its value is “marked reduction; also recorded: protective”.

**Q.** And the “Ratio of Bcl-xL to Bax in brain homogenates” value (C57BL/6 mice [4]; [6])?
**A.** The value was “significant increases”.

**Q.** And the JAK1 phosphorylation (JAK1; [7])?
**A.** The JAK1 phosphorylation was “dose-dependent inhibition”.

**Q.** What about the STAT1 phosphorylation (STAT1; [7]) of the same compound?
**A.** Its STAT1 phosphorylation is “dose-dependent inhibition”.

**Q.** And the “Ratio of Bcl-xL to Bax” value [2, 5]?
**A.** The value was “increased”.

**Q.** What does the source list for “IFN-γ: murine recombinant IFN-γ; R&D Systems; type II interferon, soluble cytokine”?
**A.** LDH release [1, 8]: significantly increased; Neuronal damage in cortical brain regions (NeuN) (C57BL/6 mice [3]; i.c.v. IFN-γ 200 U/mouse plus gp120 500 ng/mouse vs controls, IFN alone or gp120 alone): marked increase; Ratio of Bcl-xL to Bax in brain homogenates (C57BL/6 mice [4]; i.c.v. IFN-γ 200 U/mouse with gp120 or Tat 500 ng/mouse): significant reduction; Phosphorylation of JAK1 (JAK1; [9]): stimulates phosphorylation; Phosphorylation of STAT1 (STAT1; [9]): stimulates phosphorylation; Band density ratio of Bcl-xL to Bax [2, 8]: reduced
